These results are taken from patent US12612644B2, “Scalable method for recombinant AAV production” (REGENXBIO Inc., priority 2018, dated 2026).

The test system of data set [1] is HEK293 cells expressing rAAV9 particles. As to the kind of experiment: Effect of NaCl and/or sodium propionate on rAAV9 yield, microscale bioreactors (Example 5). It is filed as cell-based, human. Particulars: effects of other conditions averaged. On the procedure:
The effect of sodium chloride and sodium propionate (NaPr) (ThermoFisher Scientific) on rAAV yield in a suspension culture of HEK293 cells expressing rAAV9 particles encapsidating a transgene. HEK293 cells were seeded at 1×10e6 viable cell/ml density in advanced microscale bioreactors. The medium comprised 100 mM NaCl. At 48 hrs ECD (Elapsed Culture Duration), the cells were transfected with a mixture of polyethylenimine and 3 plasmids encoding adeno-virus helper functions, transgene and AAV 2/9 Rep/Cap. 4, 20, or 36 hours after transfection, NaCl, NaPr, anti-clump, EFC+, and/or Na valproate was added to the cultures. Conditions tested were 0, 30 mM and 60 mM NaCl, 0, 2 mM and 4 mM NaPr. Multiple conditions were tested using a Design of Experiment approach. The supernatant of the cultures was harvested at […], i.e., 5 days post-transfection. rAAV yields were obtained. […] Resulting titer improvement by adding NaCl and/or NaPr is shown in FIG. 3 where the effects of other tested conditions are averaged. […] The observed ˜2-fold increase is higher than what would be expected if the effect of NaPr and increased NaCl were additive.

Data set [2] relates to HEK293 cells expressing AAV8 particles. As to the kind of experiment: Large scale (50 liter) rAAV production using NaCl enhancer (Example 3). The conditions noted are these: 50 liter culture; NaCl increased by 60 mM 24 hours post transfection. It is filed as cell-based, human. How it is done: The effect of NaCl on rAAV yield was tested in 50 liter cultures of HEK293 cells expressing AAV8 particles encapsidating a transgene. HEK suspension cultures were grown using standard processes. Cells were diluted to ˜4×10e6 viable cells. The medium used included 100 mM NaCl. Cells were transfected 24 hours post dilution with a mixture of polyethylenimine and 3 plasmids encoding adeno-virus helper functions, transgene and AAV […]. 24 hours post transfection, sufficient NaCl was added to increase the final NaCl concentration by 60 mM. (i.e., the final NaCl concentration was ˜160 mM). Supernatant was harvested on day 4 post transfection. The processes yielded 1×10e+11 genome copy (GC)/ml and 9×10e+10. This is ˜2-fold higher than the yield of the same process without the increase in NaCl concentration following transfection.

The subject of data set [3] is CHO cells. The conditions noted are these: cited from earlier work.
Data set [4] deals with recombinant IgG production. Particulars: alone; small culture conditions less than 50 L; cited from earlier work.

On to `[Cl-].[Na+]` [NaCl, sodium chloride], for which, in data set [1] (increased NaCl in the absence of sodium propionate), the “increase in the titer” value is reported as about 1.2 fold. In data set [2], the “yield relative to the same process without the increase in NaCl concentration” value was about 2 fold.

Regarding `CCCC(=O)O` [butyric acid], in data set [3], the cell growth entry is “inhibited cell growth” and the “production of recombinant B-domain deleted factor VIII” value is listed as “enhanced production”.

Regarding `CCC(=O)O` [propionic acid], in data set [3], the “production of recombinant B-domain deleted factor VIII” value was “enhanced production”.

For the compound `CCC(=O)[O-].[Na+]` [sodium propionate], in data set [1] (2 mM sodium propionate in the absence of increased NaCl), the “increase in the titer” value is given as about 1.5 fold. The “effect on recombinant IgG production” value in data set [4] is “no strong effect alone”.
